Article PMC8227856, “Antibacterial Activity of a Promising Antibacterial Agent: 22-(4-(2-(4-Nitrophenyl-piperazin-1-yl)-acetyl)-piperazin-1-yl)-22-deoxypleuromutilin” (Molecules, 2021)
Values after ≈ are worked out from the molar mass of the structure shown. Like-named read-outs stand apart in the source and are kept apart here.

Tests used:
[1] = design: method as in PMID 25812151; settings: mice, oral acute toxicity; cited from earlier work
[2] = Pharmacokinetic study in mice, plasma LC-MS/MS; format: in vivo
Protocol: Adult female mice fasted for 12 h before the experiment. The NPDM was administered intravenously at the dose of 10 mg/kg. Approximately 0.2 mL blood samples were collected from the ocular venous plexus at 0.083, 0.167, 0.25, 0.5, 0.75, 1, 2, 4, 6, 8, 12, and 24 h after administration. All samples were centrifuged at 3000 rpm for 10 min, then the plasma samples were separated and stored at −20 °C. After thawing at room temperature, samples were mixed with acetonitrile (HPLC grade, sample:acetonitrile = 1:4, v/v) and centrifuged at 12,000 rpm for 10 min. Then, the supernatant was purified by the 0.22 μm cellulose membrane filter and transferred into an autosampler vial for HPLC-MS/MS analysis. Information of the equipment and analysis conditions are available in the Supplemental Materials. The pharmacokinetic parameters of the NPDM were calculated using the non-compartmental model in WinNonlin 5.2 software (Pharsight, Mountain View, CA, USA).

BRL-3A cells = test: Cytotoxicity, MTT assay; format: cell-based; settings: Rattus norvegicus, 16 h, read-out: 50% inhibition concentration (IC50), cell viability
Protocol: The cytotoxicity of NPDM was evaluated by the MTT assay as previously reported. Briefly, the medium containing 1 × 10^5 BRL-3A cells per 1 mL was seeded into a 96-well plate at 100 μL per well. After incubation for 48 h, media were replaced with 100 μL of serial dilutions of test compounds and incubated for 16 h. The absorbance (A) was measured at 490 nm by an automatic microplate reader (BIO-TEK Instrument Inc., Winooski, VT, USA). The cell viability was calculated according to Equation (1):(1) Cell viability (%) = (Asimple−Anegative)/(Apositive−Anegative)×100%
A graph was constructed by plotting the inhibition percentage versus various concentrations of NPDM and tiamulin, from which the IC50 of NPDM or tiamulin was calculated. The measurement was repeated in triplicate.

MRSA ATCC 43300 [3] = test: MBC assay; format: cell-based, Staphylococcus aureus
Protocol: (§1) Determination of MBCs refers to the minimum concentrations of antibacterial agents required to kill 99.9% of the test microorganisms after 24 h of incubation. After obtaining the MICs value, the 96-well plates were placed at 37 °C and incubated for 24 h. One hundred microliter aliquots of the bacterial suspensions were taken from the wells without visible bacterial growth and then plated onto MHA plates. […] The MBC assay was conducted at least in triplicate.

[4] = system: S. aureus AD3 (clinical strain); test: MBC assay; format: cell-based; settings: Staphylococcus aureus
Protocol: as §1

[5] = system: S. aureus 144 (clinical strain); test: MBC assay; format: cell-based; settings: Staphylococcus aureus
Protocol: as §1

S. aureus ATCC 29213 [6] = test: MBC assay; format: cell-based; settings: Staphylococcus aureus, ATCC29213
Protocol: as §1

[7] = system: S. aureus AD3 (clinical strain); test: MIC, broth dilution micro-method; format: cell-based; settings: Staphylococcus aureus, 24 h, MHB
Protocol: (§2) The MICs of NPDM against MRSA were determined by the broth dilution micro-method. Briefly, the stock solution of NPDM and the reference drug tiamulin were diluted by a two-fold serial dilution method with MHB in a 96-well plate to provide concentration ranges of 16~0.032 μg/mL. Then 100 μL of bacterial suspensions in log phase were diluted to 10^6 CFU/mL with MHB and were added to each well to make the final concentrations of the test compounds ranging from 8 to 0.016 μg/mL. The bacterial suspension (no drugs but solvent) was used as the positive control and MHB (no cultures) was used as the negative control. […] The MICs assay was carried out in triplicate.

[8] = system: S. aureus 144 (clinical strain); test: MIC, broth dilution micro-method; format: cell-based; settings: Staphylococcus aureus, 24 h, MHB
Protocol: as §2

MRSA ATCC 43300 [9] = test: MIC, broth dilution micro-method; format: cell-based; settings: Staphylococcus aureus, 24 h, MHB
Protocol: as §2

S. aureus ATCC 29213 [10] = test: MIC, broth dilution micro-method; format: cell-based; settings: Staphylococcus aureus, ATCC29213, 24 h, MHB
Protocol: as §2

MRSA ATCC 43300 [11] = test: Galleria mellonella infection model; format: in vivo; settings: Staphylococcus aureus, 120 h; Galleria mellonella larvae infected with MRSA, survival over 5 days
Protocol: The survival rate of Galleria mellonella was determined according to the literature with some modifications. Larvae of Galleria mellonella (16 per group) were injected with 10 μL of 10^8 CFU/mL MRSA inoculum into the last right proleg. Two hours after infection, larvae were injected with 10 μL of various doses (17.14, 25.71, 37.14, 57.14, and 85.71 mg/kg) of NPDM or tiamulin (used as reference drug) into the last left proleg. The larvae were maintained at 37 °C. Survival of the larvae was recorded daily for 5 days, and the ED50 was calculated.

MRSA ATCC 43300 [12] = test: Post-antibiotic effect (PAE) assay; format: cell-based, Staphylococcus aureus
Protocol: The PAE was carried out as described in the literature. The MRSA was diluted to 10^6 CFU/mL in MHB. The NPDM or tiamulin was added into the bacteria solution at the final concentrations of 2 × MIC and 4 × MIC. Then all tubes were incubated at 37 °C for 1 h or 2 h. Each of the above inoculums was diluted 1000-fold with pre-warmed MHB to remove the test compounds and placed in a water bath at 37 °C immediately. One hundred microliters of suspension were taken from each culture, diluted 10-fold in sterile saline, and inoculated on MHA plates at 0, 1, 2, 4, and 6 h after inoculation. The total number comprising the colonies was counted after incubation at 37 °C for 20 h. The PAE was calculated referring to published methods. The experiment was performed in triplicate.

MRSA ATCC 43300 [13] = test: Time-kill assay; format: cell-based, Staphylococcus aureus
Protocol: (§3) The MRSA and S. aureus in the logarithmic phase were diluted to 10^6 CFU/mL with MHB. Then diverse concentrations of NPDM or tiamulin were added to the bacteria solution reaching the final concentration of 1 × MIC, 2 × MIC, 4 × MIC, and 8 × MIC, respectively. All bacterial inoculums were cultured at 37 °C with shaking. A total of 100 μL samples were taken from the subcultures at 0, 3, 6, 9, and 24 h, respectively, and continuously diluted 10-fold in sterile saline; then, 25 μL diluent was plated on the MHA plate. All plates were placed at 37 °C for 24 h. The total number of colonies on the plate was counted, and the results were expressed as log (CFU/mL).

S. aureus ATCC 29213 [14] = test: Time-kill assay; format: cell-based, Staphylococcus aureus
Protocol: as §3

MRSA ATCC 43300 [15] = test: Neutropenic mouse systemic infection model; format: in vivo, Staphylococcus aureus; settings: 30 mg/kg i.v.
Protocol: The survival rate of mice was determined by the systemic infection model according to the literature with some modifications. Neutropenic mice (10 per group, half male and half female) were injected with 0.5 mL MRSA inoculum of 10^6 CFU/mL (100% minimum lethal dose) intraperitoneally. One hour after infection, the mice were administered with NPDM or tiamulin intravenously at a dose of 30 mg/kg body weight. Tiamulin was used as a reference drug. The survival of the mice was recorded for 7 days.

[16] = Acute oral toxicity in mice; format: in vivo; settings: for LD50 at 2 weeks: both sexes, mice, oral single dose; for LD50 at 2 weeks / Mortality / Mortality Rate: mouse, in vivo, po; for Mortality / Mortality Rate: both, 2 weeks
Protocol: The acute oral toxicity of NPDM was evaluated according to the method reported in the literature. Mice were divided into 6 groups (10 animals each group, half male and half female) and were fasted for 12 h before the experiment. The NPDM was dissolved in DMSO and suspended in 0.5% sodium carboxymethyl cellulose solution. The volumes of suspension by oral gavages were 0.1 mL/10 g. The vehicle control group received DMSO without drug. All animals were observed twice daily for symptoms and mortality for two weeks. At the end of the study, all surviving animals were sacrificed.

MRSA ATCC 43300 [17] = test: Neutropenic mouse thigh infection model; format: in vivo, Staphylococcus aureus; settings: 20 mg/kg i.v., neutropenic mice
Protocol: (§4) The mouse thigh infection model was performed as described in the literature with minor modifications. Briefly, female mice had induced neutropenia (neutrophil count ≤ 100/mm^3) by administered intraperitoneally cyclophosphamide on day 4 (150 mg/kg) and day 1 (100 mg/kg) before the experiment. A bacterial suspension of 0.1 mL (MRSA or S. aureus) containing approximately 10^7 CFU/mL microorganism was injected into the posterior thigh of mice to establish infection. Two hours after infection, mice were intravenously injected with NPDM or tiamulin at 20 mg/kg. After 24 h, thighs (six per group) were collected upon euthanasia. Then, thighs were weighed and homogenized with sterile saline. Tissue homogenate was continuously diluted 10-fold and plated on MHA plates for colony counts. SPSS 19 software was used for statistical analysis and t-tests.

S. aureus ATCC 29213 [18] = test: Neutropenic mouse thigh infection model; format: in vivo, Staphylococcus aureus; settings: 20 mg/kg i.v., neutropenic mice
Protocol: as §4

[19] = female, mouse, plasma, iv, 10 mg/kg i.v., non-compartmental

In the case of C=C[C@]1(C)C[C@@H](OC(=O)CSc2nnc(N)s2)[C@]2(C)[C@H](C)CC[C@]3(CCC(=O)[C@H]32)[C@@H](C)[C@@H]1O [ATTM, 14-O-[(2-Amino-1,3,4-thiadiazol-5-yl)Thioacetyl] Mutilin], the LD50 [1] is listed as 2304.4 mg/kg.

C=C[C@]1(C)C[C@@H](OC(=O)CN2CCN(C(=O)CN3CCN(c4ccc([N+](=O)[O-])cc4)CC3)CC2)[C@]2(C)[C@H](C)CC[C@]3(CCC(=O)[C@H]32)[C@@H](C)[C@@H]1O [NPDM, 22-(4-(2-(4-nitrophenyl-piperazin-1-yl)-acetyl)-piperazin-1-yl)-22-deoxypleuromutilin] gave an MRT ([2]; 10 mg/kg i.v., non-compartmental, 10 mg/kg) of 18.6 ± 3 min, a clearance ([2]; female, mouse, plasma, 10 mg/kg, single intravenous administration) of 46 mL/min/kg and an AUC(0-inf) [2, 19] of 3660 ± 370 ng·h/mL. For the same compound, the AUC(0-t) [2, 19] was 3650 ± 400 ng·h/mL, the Cmax [2, 19] was 8690 ± 740 ng/mL and the Tmax [2, 19] was 4.98 min. It also gave a half-life [2, 19] of 13.2 ± 2.4 min, an MRT ([2]; female, mouse, plasma, iv, 10 mg/kg, 10 mg/kg i.v., non-compartmental, read-out: MRT) of 21.6 min and an IC50 (BRL-3A cells) of 9.64 µg/mL (≈ 13.9 µM). The MBC (MRSA ATCC 43300 [3]; Staphylococcus aureus, MRSA ATCC 43300) was 0.125 µg/mL (≈ 0.18 µM), the MBC/MIC value (MRSA ATCC 43300 [3]; against MRSA) was “one” and the MBC [4] was 0.5 µg/mL (≈ 0.721 µM). The MBC [5] was 0.5 µg/mL (≈ 0.721 µM), the MBC (S. aureus ATCC 29213 [6]) was 0.25 µg/mL (≈ 0.36 µM) and the MIC [7] was 0.125 µg/mL (≈ 0.18 µM). For the same compound, the MIC [8] was 0.125 µg/mL (≈ 0.18 µM), the MIC (MRSA ATCC 43300 [9]) was 0.125 µg/mL (≈ 0.18 µM) and the MIC (S. aureus ATCC 29213 [10]) was 0.125 µg/mL (≈ 0.18 µM). The ED50 (MRSA ATCC 43300 [11]) was 50.5 mg/kg, the PAE (MRSA ATCC 43300 [12]; 2 × MIC, exposure for 1 h) was 2.58 h and the PAE (MRSA ATCC 43300 [12]; 2 × MIC, exposure for 2 h) was 3.62 h. For the same compound, the PAE (MRSA ATCC 43300 [12]; 4 × MIC, exposure for 1 h) was 3.11 h, the PAE (MRSA ATCC 43300 [12]; 4 × MIC, exposure for 2 h) was 4.03 h and the “PAE longer than that of tiamulin” value (MRSA ATCC 43300 [12]; difference vs tiamulin) was 1~2 h. The “Time-kill activity at 2 × MIC” value (MRSA ATCC 43300 [13]; 2 × MIC) was “bactericidal activity”, the “Concentration showing bactericidal activity (≥3 log10 CFU/mL decrease)” value (MRSA ATCC 43300 [13]; after incubation for 24 h) was ≥ 2 × MIC and the “Concentration showing bacteriostatic effect” value (S. aureus ATCC 29213 [14]) was ≥ 2 × MIC. The “Survival rate at the endpoint” value (MRSA ATCC 43300 [15]; lethal MRSA challenge, 7 days, neutropenic mice) was 70%, the “Survival rate higher than that of the tiamulin-treated group” value (MRSA ATCC 43300 [15]; difference vs tiamulin) was 20% and the Acute toxicity classification ([16]; LD50 in the range of 501~5000 mg/kg) was “low-toxic compound”. It also gave an LD50 at 2 weeks ([16]; modified Karber's formula, read-out: LD50) of 3760 mg/kg, an LD50 at 2 weeks ([16]; read-out: LD50 95% confidence interval) of 3010 to 4710 mg/kg and a Mortality ([16]; 987.65 mg/kg) of 1. The “Mortality Rate” value ([16]; 987.65 mg/kg) was 10%, the Mortality ([16]; 1481.48 mg/kg) was 1 and the “Mortality Rate” value ([16]; 1481.48 mg/kg) was 10%. For the same compound, the Mortality ([16]; 2222.22 mg/kg) was 2, the “Mortality Rate” value ([16]; 2222.22 mg/kg) was 20% and the Mortality ([16]; 3333.33 mg/kg) was 3. The “Mortality Rate” value ([16]; 3333.33 mg/kg) was 30%, the Mortality ([16]; 5000 mg/kg) was 5 and the “Mortality Rate” value ([16]; 5000 mg/kg) was 50%. For the same compound, the “Reduction of mean MRSA counts in thighs vs untreated group” value (MRSA ATCC 43300 [17]; 24 h) was ~ 1.61 log CFU/mL, the “Average amount of MRSA inoculum in thighs” value (MRSA ATCC 43300 [17]; 24 h after treatment) was “(8.16 ± 3.70) × 10^7 CFU” and the “Average amount of S. aureus inoculum in thighs” value (S. aureus ATCC 29213 [18]; 24 h after treatment) was “(1.23 ± 0.51) × 10^8 CFU”. The “Reduction of mean bacterial counts in thighs vs untreated group” value (S. aureus ATCC 29213 [18]; S. aureus, 24 h) was ~ 0.95 log CFU/mL.
